From patent US6380231B1 (priority 1995, dated 2002)

melting point: 120 °C
Structure (SMILES): CO/C=C(/C(=O)OC)c1ccccc1COc1ncn(-c2ccccc2Cl)n1 [Compound 12, Methyl α-(2-(N′-(o-chlorophenyl)-triazolyl-3′-oxymethyl)-phenyl)-β-methoxyacrylate]
